Measurements reported in patent publication US20230149418A1, “METHODS AND SYNERGIC COMPOSITIONS FOR TREATING VIRAL INFECTIONS” (HADASIT MEDICAL RESEARCH SERVICES AND DEVELOPMENT LTD., priority 2018, published 2023).
Where two headings read alike, the source gives them in different places.

Assays:
[1] = male rats, 50 mg/kg for 14 days; cited from earlier work
[2] = tested on: HCMV; assay: Ex vivo HCMV infection of human decidual (placental) tissue organ cultures, viral mRNA copy number; assay type: cell-based, human cytomegalovirus; conditions: for EC50: Human betaherpesvirus 5; for Dose of drug alone at Fa 0.9: Fa 0.9, drug alone; for DRI (dose reduction index): combination artemisone + maribavir
Description: Organ cultures were washed and stored at -80° C. until assayed. RNA was extracted, and the purified RNA samples were subjected to reverse transcription (RT), followed by quantitative real-time PCR. The viral mRNA copy number was normalized by the cellular housekeeping gene β-actin.
We employed our model of HCMV infection in human decidual tissues (representing the maternal aspect of the chimeric human placenta), maintained as multi-cell-type 3D organ cultures as described in Weisblum Y. et al. J Virol 2011 85(24): 13204-13. doi: 10.1128/JVI.05749-11. For infection of the organ cultures, decidual tissues were placed in 48-well plates and inoculated with the virus (5x10^4 plaque forming units (PFU)/well) for 12 h to allow effective viral adsorption. The tissues were further monitored for viral infection and spread for 7 days. For determination of the drug EC50 values of in the tissues, serial drug concentrations: each drug separately or combination of the drugs were added to the infected decidual tissues during viral adsorption at any further medium replacement to keep the drug concentration constant. The results were compared to samples to which the drug was not added. The EC50 was defined as the drug concentration required to reduce the viral mRNA copy number by 50%. The effect of drug combinations was tested in accordance with the Chou-Talalay method. All comparative experiments were performed in parallel on tissues from the same donor.
The dose reduction index (DRI) was then calculated as described in Chou. As described earlier, the DRI is a measure of how many folds the dose of each drug in a synergistic combination may be reduced at a given effect level compared with the doses of each drug alone. For each one of the below tables: Fa - fraction of virus affected; doses are provided in µm.

[3] = tested on: human endothelial cells; conditions: compared with dihydroartemisinin; cited from earlier work
[4] = preclinical in vitro and in vivo screens; cited from earlier work

## CC1CCC2[C@@H](C)[C@H](N3CCS(=O)(=O)CC3)OC3O[C@]4(C)CCC1C32OO4 (stereo in doubt) [artemisone]
[1]
  Tolerability: no effect as compared to controls
[2]; ex vivo, Fa 0.5, drug alone, read-out: Dose of drug alone at Fa 0.5
  EC50: 425 nM
[2]; sole drug, ex vivo decidual tissues, read-out: EC50 (concentration required to reduce the viral mRNA copy number by 50%)
  EC50: 500 nM
[2]; ex vivo, Fa 0.05, drug alone
  Dose of drug alone at Fa 0.05: 0.00699 µm
[2]; ex vivo, Fa 0.75, drug alone
  Dose of drug alone at Fa 0.75: 1.965 µm
[2]; ex vivo
  Dose of drug alone at Fa 0.9: 9.1 µm
[2]; ex vivo, listed as Art
  Dose of drug alone at Fa 0.9: 9.098 µm
[2]; ex vivo, Fa 0.95, drug alone
  Dose of drug alone at Fa 0.95: 25.7963 µm
[2]; ex vivo, Fa 0.97, drug alone
  Dose of drug alone at Fa 0.97: 54.1517 µm
[2]; ex vivo, Fa 0.05
  DRI (dose reduction index): 0.1239
[2]; ex vivo, Fa 0.5
  DRI (dose reduction index): 1.12
[2]; ex vivo, Fa 0.75
  DRI (dose reduction index): 2.546
[2]; ex vivo, Fa 0.9
  DRI (dose reduction index): 5.8
[2]; ex vivo, Fa 0.9, listed as Art
  DRI (dose reduction index): 5.789
[2]; ex vivo, Fa 0.95, listed as Art
  DRI (dose reduction index): 10.1210
[2]; ex vivo, Fa 0.97
  DRI (dose reduction index): 15.0614
[3]
  Anti-angiogenic activity: significantly less anti-angiogenic than dihydroartemisinin
[4]
  Neurotoxicity: does not elicit neurotoxicity
